Experimental data: article PMC8262356, “SLC26A6-selective inhibitor identified in a small-molecule screen blocks fluid absorption in small intestine” (JCI Insight, 2021)

Experiments:
PAT1 (murine slc26a6) = biological target: T1, PAT1 (murine slc26a6) (Mus musculus, UniProt Q8CIW6); experiment: PAT1-mediated Cl-/I- exchange, YFP fluorescence quenching in FRT cells; assay type: cell-based; conditions: for effect on PAT1-mediated Cl-/I- exchange: 100 μM agonist
T1 construct: host or cells: Fischer rat thyroid (FRT) cells, lentiviral transduction (pLVX-IRES-mCherry-slc26a6), clonal line FRT-YFP-slc26a6
T1 sequence (Q8CIW6 24-758 limits assumed): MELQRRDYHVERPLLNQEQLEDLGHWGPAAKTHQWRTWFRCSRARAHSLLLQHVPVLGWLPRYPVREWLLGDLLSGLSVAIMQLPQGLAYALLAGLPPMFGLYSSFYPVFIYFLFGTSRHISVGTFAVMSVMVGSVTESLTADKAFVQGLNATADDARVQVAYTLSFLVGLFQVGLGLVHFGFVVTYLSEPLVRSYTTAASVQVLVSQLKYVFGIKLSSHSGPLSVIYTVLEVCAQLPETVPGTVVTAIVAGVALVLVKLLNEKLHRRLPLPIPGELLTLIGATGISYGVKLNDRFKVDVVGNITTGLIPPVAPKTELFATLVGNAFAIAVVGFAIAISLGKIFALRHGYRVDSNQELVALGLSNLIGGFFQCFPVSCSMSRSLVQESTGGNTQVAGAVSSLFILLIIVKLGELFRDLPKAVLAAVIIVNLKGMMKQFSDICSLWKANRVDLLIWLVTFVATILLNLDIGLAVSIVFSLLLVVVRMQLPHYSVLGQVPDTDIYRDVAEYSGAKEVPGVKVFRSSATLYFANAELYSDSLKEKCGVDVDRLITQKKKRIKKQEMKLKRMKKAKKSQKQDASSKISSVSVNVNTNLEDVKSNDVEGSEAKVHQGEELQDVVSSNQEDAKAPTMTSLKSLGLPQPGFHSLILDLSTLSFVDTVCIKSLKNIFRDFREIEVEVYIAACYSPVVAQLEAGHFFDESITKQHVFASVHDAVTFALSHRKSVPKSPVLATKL
Protocol: A small-molecule screen was developed to identify PAT1 inhibitors utilizing transfected FRT cells expressing PAT1 (murine slc26a6) together with a halide-sensing cytoplasmic YFP (Figure 1A). Adherent cells in a 96-well format were subjected to an inward gradient of I^– to drive exchange of I^– for Cl^– and consequent quenching of the YFP fluorescence signal.
A collection of approximately 50,000 diverse, drug-like synthetic small molecules (ChemDiv) was screened at a concentration of 25 μM using a Beckman Coulter BioMek FX liquid handling platform with FLUOstar OMEGA plate readers (BMG Labtech). FRT-YFP-slc26a6 cells were plated in 96-well black-walled, clear-bottom plates (Corning Life Sciences) at a density of 20,000 cells/well and cultured for 48 hours until confluent. Cells were washed twice in PBS and incubated for 10 minutes prior to assay in 100 μl PBS containing test compounds. For assay of slc26a6 function, baseline cellular fluorescence was measured for 2 seconds, after which 100 μl NaI-substituted PBS (140 mM NaCl replaced by 140 mM NaI) was added by syringe pump to drive Cl^–/I^– exchange. The initial rate of Cl^–/I^– exchange was determined by single exponential regression of the fluorescence time course. All assay plates contained wells with negative (1% DMSO) and positive (500 μM niflumic acid) controls. For structure-activity relationship studies, analogs of active compounds were purchased from ChemDiv.

[1] = system: mouse midjejunal closed loops; design: method as in PMID 30046015; conditions: 10 μM; cited from earlier work
[2] = system: mouse midjejunal closed loops; experiment: Closed midjejunal loop fluid absorption; assay type: in vivo; conditions: 10 μM luminal, 30 minutes
Protocol: For fluid absorption studies in small intestine, mice were given free access to 5% dextrose in water but not solid food for 24 hours before experiments. Closed midjejunal and ileal loops were prepared and isolated as described previously ([29]). Mice were anesthetized with isoflurane, and body temperature was maintained during surgery at 36°C–38°C using a heating pad. A small abdominal incision was made to expose small intestine for isolation of 3–4 closed small intestinal loops (jejunum or ileum, length 2–3 cm) with sutures. Loops were injected with 100 μL PBS (pH 7.4, 137 mM NaCl, 2.7 mM KCl, 8 mM Na2HPO4, 1.8 mM KH2PO4, 1 mM CaCl2, 0.5 mM MgCl2) containing 30 μM PAT1inh-B01, 10 μM DRAinh-A270, or 10 μM tenapanor (MedChemExpress) (or vehicle, 0.1% DMSO in PBS). In some experiments, 30 μM PAT1inh-B01 and 10 μM DRAinh-A270 were used together. In some experiments to rule out effects of sodium-dependent phosphate transport, the loop lumen contained HEPES-buffered saline (pH 7.4, 137 mM NaCl, 4.5 mM KCl, 10 mM HEPES, 1 mM CaCl2, 0.5 mM MgCl2). […] Intestinal loops were removed at 0 and 30 minutes (in separate mice), and loop length and weight were measured to quantify fluid absorption. […] In some experiments, loop fluid was emptied with a syringe, and pH was measured immediately using AB15 pH meter after brief centrifugation at 2000 g for 5 minutes at 4°C.

mouse ileal closed loops = experiment: Closed ileal loop fluid absorption; assay type: in vivo; conditions: 10 μM luminal, 30 minutes, PBS
Protocol: (§1) For fluid absorption studies in small intestine, mice were given free access to 5% dextrose in water but not solid food for 24 hours before experiments. Closed midjejunal and ileal loops were prepared and isolated as described previously ([29]). Mice were anesthetized with isoflurane, and body temperature was maintained during surgery at 36°C–38°C using a heating pad. A small abdominal incision was made to expose small intestine for isolation of 3–4 closed small intestinal loops (jejunum or ileum, length 2–3 cm) with sutures. Loops were injected with 100 μL PBS (pH 7.4, 137 mM NaCl, 2.7 mM KCl, 8 mM Na2HPO4, 1.8 mM KH2PO4, 1 mM CaCl2, 0.5 mM MgCl2) containing 30 μM PAT1inh-B01, 10 μM DRAinh-A270, or 10 μM tenapanor (MedChemExpress) (or vehicle, 0.1% DMSO in PBS). In some experiments, 30 μM PAT1inh-B01 and 10 μM DRAinh-A270 were used together. In some experiments to rule out effects of sodium-dependent phosphate transport, the loop lumen contained HEPES-buffered saline (pH 7.4, 137 mM NaCl, 4.5 mM KCl, 10 mM HEPES, 1 mM CaCl2, 0.5 mM MgCl2). The abdominal incision was closed with sutures, and mice were allowed to recover from anesthesia. Intestinal loops were removed at 0 and 30 minutes (in separate mice), and loop length and weight were measured to quantify fluid absorption. In parallel experiments, CF mice were used and loop studies were done as described above. In some experiments, loop fluid was emptied with a syringe, and pH was measured immediately using AB15 pH meter after brief centrifugation at 2000 g for 5 minutes at 4°C.

[3] = system: mouse distal colonic closed loops; experiment: Closed distal colonic loop fluid absorption; assay type: in vivo; conditions: 10 μM luminal
Protocol: For fluid absorption studies in colon, mice were given free access to 5% dextrose in water but not solid food for 48 hours. Mice were treated with 500 μL mineral oil twice a day rectally (final dose 16 h before surgery) during this period to evacuate the colon. Closed distal colonic loops (length 1.5–2 cm, 1 loop per mouse) were isolated as described previously ([7]). Loops were injected with 100 μL PBS with 30 μM PAT1inh-B01, 10 μM DRAinh-A270, or 10 μM tenapanor (or vehicle). In some experiments, 30 μM PAT1inh-B01 and 10 μM DRAinh-A270 were used together. Colonic loops were removed at 0 and 60 minutes (in separate mice), and loop length and weight were measured to quantify fluid absorption.

[4] = system: ileal closed loops in cystic fibrosis (CF) mice (homozygous F508del); experiment: Closed ileal loop fluid absorption in CF mice; assay type: in vivo, mouse; conditions: 10 μM luminal
Protocol: as §1

[5] = system: loperamide-induced constipation in mice; experiment: Loperamide model of constipation; assay type: in vivo, mouse; conditions: 10 mg/kg, oral, stool collected over 3 hours
Protocol: Wild-type CD1 mice were administered loperamide (0.3 mg/kg, intraperitoneally) in PBS containing 5% ethanol (0.1 mg/mL final concentration) to induce constipation ([9], [30]). PAT1inh-B01 and DRAinh-A270, individually or together (10 mg/kg each, in saline containing 5% DMSO and 10% Kolliphor HS 15), or vehicle control were administered by oral gavage 1 hour before loperamide. After loperamide injection mice were placed individually in metabolic cages with free access to food and water. Stool samples were collected for 3 hours, and total stool weight and number of fecal pellets were quantified. To measure stool water content, stool samples were dried at 80°C for 24 hours and water content was calculated as follows: (wet weight – dry weight)/wet weight ([9], [30]).

DRA = DRA inhibition potency comparison; conditions: vs DRAinh-A250

| Compound | effect on PAT1-mediated Cl-/I- exchange (PAT1 (murine slc26a6)) | inhibition of fluid absorption (decrease in loop weight-to-length ratio) [2] | effect on ileal fluid absorption (loop weight-to-length ratio) (mouse ileal closed loops) | effect on colonic fluid absorption (loop weight-to-length ratio) [3] | effect on fluid absorption from ilea of CF mice [4] | further results |
| --- | --- | --- | --- | --- | --- | --- |
| Nc1nc2c(nc(Br)n2[C@@H]2O[C@@H]3COP(=O)(O)O[C@H]3[C@H]2O)c(=O)[nH]1 [8-Br-cGMP, reference compound] | did not significantly affect | – | – | – | – | – |
| Nc1ncnc2c1ncn2[C@@H]1O[C@H](COP(=O)(O)OP(=O)(O)OP(=O)(O)O)[C@@H](O)[C@H]1O [ATP, reference compound] | did not significantly affect | – | – | – | – | – |
| Cc1c(CC(=O)O)c(=O)oc2c(C)c(OCc3cccc(Br)c3)ccc12 [DRAinh-A250] | – | – | – | – | – | effect on fluid absorption in closed midjejunal loops [1]: did not significantly affect |
| Cc1c(CC(=O)O)c(=O)oc2c(C)c(OCc3cccc(I)c3)ccc12 [DRAinh-A270] | – | approximately 50% | did not inhibit | completely prevented | no effect | effect on number of pellets [5]: increased; effect on stool water content [5]: normalized; effect on stool weight [5]: increased; potency as DRA inhibitor relative to DRAinh-A250 (DRA): 5 fold |
| O=C(O)c1cccnc1Nc1cccc(C(F)(F)F)c1 [niflumic acid, reference compound] | – | – | – | – | – | IC50 (PAT1 (murine slc26a6); FRT cells expressing PAT1 and YFP, read-out: IC50, inhibition of PAT1-mediated Cl-/I- exchange): 200 µM |
| CN1Cc2c(Cl)cc(Cl)cc2[C@H](c2cccc(S(=O)(=O)NCCOCCOCCNC(=O)NCCCCNC(=O)NCCOCCOCCNS(=O)(=O)c3cccc([C@@H]4CN(C)Cc5c(Cl)cc(Cl)cc54)c3)c2)C1 [tenapanor] | – | comparable | comparable | did not inhibit | completely blocked | – |
